Data from article PMC10180515, “Biological Evaluation of Triorganotin Derivatives as Potential Anticancer Agents” (Molecules, 2023).
Values joined by “and” are separate entries in the source; they are usually repeats but may differ in a detail not shown here. Identical values can stand only once. Like-named read-outs stand apart in the source and are kept apart here.

Tests used:
MCF-10A cells [1] = test: MTT assay of metabolic activity, MCF-10A; assay type: cell-based, human
U937 cells [2] = test: MTT assay of metabolic activity, U937; assay type: cell-based
CAL-27 cells [3] = test: Trypan blue exclusion viability test, CAL-27; assay type: cell-based, human; details: CAL-27, 24 h
PBMCs = test: MTT assay of metabolic activity, PBMCs; assay type: cell-based, human
CAL-27 cells [4] = test: MTT assay of metabolic activity, CAL-27; assay type: cell-based, human
MCF-10A cells [5] = test: Trypan blue exclusion viability test, MCF-10A; assay type: cell-based, human; details: 24 h
12 bp DNA duplex = test: NMR interaction with 12 bp DNA duplex; assay type: binding; details: 0.2 mM duplex, 6 h incubation; cisplatin two equivalents, TBT-OCOCF3 two or five equivalents
Procedure: In order to investigate the mechanisms underlying the cytotoxicity exerted by TBT-OCOF3, a first approach was to verify whether they were based on a direct interaction with DNA, similar to what was described for metal derivatives such as cisplatin. To this purpose, we investigated if TBT-OCOCF3 could bind to DNA using NMR. For TBT-OCOCF3, the 1D and 2D spectra of 12 bp DNA were acquired in the presence or absence of the compound. As a positive control for the interaction, cisplatin was assayed, which forms adducts or inter- and intra-strand crosslinks resulting in interference in the replication machinery, G2/M cell arrest, and cell death by apoptosis or necrosis. A solution containing 0.2 mM of the duplex, whose sequences are indicated in Figure 3, was annealed directly in the NMR tube. The double-helix formation was confirmed by the appearance of low-field signals belonging to the T- and G-NH groups (Figure 3a, left panel). The DNA’s aromatic signals were assigned to the different types of ^1H nuclei using a combination of ^1H-NMR and ^1H-^1H TOCSY experiments (Figure S3 in the Supplementary Materials) and chemical shift values (Figure 3a, right panel).

[6] = tested on: CAL-27 cells, MCF-10A cells, PBMCs, and U937 cells; details: read-out: IC50 metabolic activity (MTT) in all tested cells; 24 h
[7] = phosphate buffer pH 7.4, 37 °C, nominal concentration 400 µM
Procedure: For the NMR studies, the compounds were dissolved in DMSO-d6 and a phosphate buffer (50 mM, 5% D2O, pH = 7.4) containing, as an internal standard, 2,2,4,4-tetradeuterumtrimethylsilylpropionic acid (TSP). The NMR experiments were performed in D2O at 25 °C and recorded with a Bruker Avance spectrometer operating at 700 MHz for ^1H, equipped with a 5 mm inverse TXI probe, z-axis gradients, and a Sample Xpress Lite autosampler. The ^1H-NMR spectra were recorded with a spectral window of 15 ppm, 16 k complex points, and a relaxation delay of 10 s for a total of 16 transients.

CAL-27 cells [8] = details: CAL-27, 2-NBDG, 1 h, 10 μM and 20 μM
MCF-10A cells [9] = details: 2-NBDG, 1 h, 10 μM and 20 μM
CAL-27 cells [10] = test: Annexin-V/7-AAD double staining flow cytometry, CAL-27; assay type: cell-based, human; details: CAL-27, 4 h; TBT-OCOCF3 20 µM, WMN 0.5 µM; mean ± SD
U937 cells [11] = assay type: cell-based; details: 18 h
[12] = 24 h, ± SD, three experiments in triplicate
[13] = 20–80 μM, even at the higher concentration tested

N.N.[Cl][Pt][Cl] [Cisplatin, cis-diaminedichloroplatinum (II)]
IC50 (MCF-10A cells [1]; [12]): 21.5 ± 0.04 µM | IC50 (U937 cells [2]; [12]): 38100 ± 3230 nM | Susceptibility of cells to treatment (viable cell number) (CAL-27 cells [3]; [13]): resistant | IC50 (PBMCs; 24 h, ± SD, IL-2 stimulated PBMCs of healthy individuals): 52500 ± 5880 nM | IC50 (CAL-27 cells [4]; [12]): 139 ± 59.5 µM | Susceptibility of cells to treatment (viable cell number) (MCF-10A cells [5]; [13]): resistant | Interaction with 12 bp DNA (change in NMR spectrum) (12 bp DNA duplex): showed evidence of the interaction

CCC[CH2][Sn]([Cl])([CH2]CCC)[CH2]CCC [TBT-Cl, tributyltin chloride]
IC50 (MCF-10A cells [1]): 1.22 ± 0.41 µM | IC50 (U937 cells [2]): 420 ± 300 nM | Effect on number of viable cells (CAL-27 cells [3]; all of the concentrations tested (1.25 to 20 μM)): greatly decreased the number of viable cells | IC50 (PBMCs): ≤ 1000 nM | IC50 [6]: ≤ 1000 nM and ~1000 nM | IC50 (CAL-27 cells [4]): 0.91 ± 0.53 µM | Inhibition of viability (MCF-10A cells [5]; all of the tested concentrations (1.25 to 20 μM)): ≥ 90% | Solubility [7]: 61 µM

CCC[CH2][Sn]([CH2]CCC)([CH2]CCC)[O][Sn]([CH2]CCC)([CH2]CCC)[CH2]CCC [TBT-O, bis(tributyltin) oxide]
IC50 (MCF-10A cells [1]): 4.93 ± 2.33 µM | IC50 (U937 cells [2]): 1820 ± 210 nM | Effect on trypan-blue-negative (viable) cells recovered (CAL-27 cells [3]; 10 µM and 20 µM): complete inhibition | IC50 (PBMCs): 2960 ± 1350 nM | IC50 (CAL-27 cells [4]): 13.2 µM | Glucose uptake inhibition (CAL-27 cells [8]): significantly inhibited | Glucose uptake inhibition (MCF-10A cells [9]): significantly inhibited | Inhibition of viability (MCF-10A cells [5]; 5 µM): 90% | Inhibition of viability (MCF-10A cells [5]; 10 µM and 20 µM): 100% | Solubility [7]: 42 µM

COC[C@H]1OC(=O)c2coc3c2[C@@]1(C)C1=C(C3=O)[C@@H]2CCC(=O)[C@@]2(C)C[C@H]1OC(C)=O [WMN, wortmannin]
Anx+/7AAD+ cells (CAL-27 cells [10]): 0.78 ± 0.04% | Anx+/7AAD- cells (CAL-27 cells [10]): 6.42 ± 2.45% | Anx-/7AAD+ cells (CAL-27 cells [10]): 2.99 ± 0.02% | Anx-/7AAD- cells (CAL-27 cells [10]): 89.8 ± 4.63% | Effect on rapamycin-induced autophagy (U937 cells [11]; U937, wortmannin 0.5 μM cotreatment with rapamycin 0.5 μM): significantly inhibited

CO[C@H]1C[C@@H]2CC[C@@H](C)[C@@](O)(O2)C(=O)C(=O)N2CCCC[C@H]2C(=O)O[C@H]([C@H](C)C[C@@H]2CC[C@@H](O)[C@H](OC)C2)CC(=O)[C@H](C)/C=C(\C)[C@@H](O)[C@@H](OC)C(=O)[C@H](C)C[C@H](C)/C=C/C=C/C=C/1C [rapamycin]
Autophagic-specific fluorescent green signal compared to control cells (U937 cells [11]; U937, 0.5 μM): significant increase
